Active and inactive are the calls of the source.
Experiments:
Coagulation factor XII = target: T1, Coagulation factor XII (Homo sapiens, UniProt P00748); format: functional;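 further: activated factor XIIa alpha cleaving a fluorogenic AMC peptide substrate; inhibitor potency from loss of enzyme activity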
T1 sequence (P00748 whole entry): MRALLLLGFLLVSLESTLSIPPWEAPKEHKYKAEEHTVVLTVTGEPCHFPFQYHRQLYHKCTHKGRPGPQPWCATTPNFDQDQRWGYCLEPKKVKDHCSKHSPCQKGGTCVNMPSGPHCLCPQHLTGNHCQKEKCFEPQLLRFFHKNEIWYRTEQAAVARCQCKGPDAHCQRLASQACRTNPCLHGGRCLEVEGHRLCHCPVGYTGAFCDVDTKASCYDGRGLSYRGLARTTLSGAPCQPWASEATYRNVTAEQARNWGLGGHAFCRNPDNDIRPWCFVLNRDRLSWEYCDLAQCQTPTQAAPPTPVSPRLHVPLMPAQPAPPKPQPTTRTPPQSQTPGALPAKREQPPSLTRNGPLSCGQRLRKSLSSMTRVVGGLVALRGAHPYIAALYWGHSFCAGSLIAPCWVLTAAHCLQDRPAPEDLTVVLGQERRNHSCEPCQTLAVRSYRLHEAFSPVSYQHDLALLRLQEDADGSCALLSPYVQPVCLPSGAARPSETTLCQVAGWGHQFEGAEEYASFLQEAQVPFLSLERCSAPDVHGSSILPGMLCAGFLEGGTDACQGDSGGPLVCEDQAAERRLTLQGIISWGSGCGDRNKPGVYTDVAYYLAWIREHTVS

Prothrombin = Prothrombin (Homo sapiens, UniProt P00734); assay: Thrombin 1536 HTS Dose Response Confirmation. [Related pubchem assays: 1046 (Thrombin 1536 HTS; hits were confirmed in this assay)]; format: functional
[1] = target: T2, Sphingosine 1-phosphate receptor 2 (Homo sapiens, UniProt O95136); assay: Dose Response Cell Based Assay for Agonists of the S1P2 Receptor. [Related pubchem assays: 729, 736, 843 ]; format: functional
[2] = target: Lytic switch protein BZLF1 (Epstein-Barr virus (strain B95-8) (HHV-4) (Human herpesvirus 4), UniProt P03206); assay: inhibition of BZLF1 ZTA DNA binding – biochemical, fluorescence polarization, Epstein-Barr virus, 1536-well, counter-screen for EBNA-1 inhibitor project, dose response (AID 2377); design: species or system human gammaherpesvirus 4;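 further: fluorescence polarization of Cy5-labelled ZRE DNA probe bound by purified Zta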
[3] = target: Epstein-Barr nuclear antigen 1 (Epstein-Barr virus (strain B95-8) (HHV-4) (Human herpesvirus 4), UniProt P03211); assay: inhibition of EBV nuclear antigen 1 DNA binding – biochemical, fluorescence polarization, 1536-well, dose response (AID 2381); design: species or system human gammaherpesvirus 4;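 further: fluorescence polarization of a Cy5 DNA probe bound by EBNA-1 protein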
[4] = target: Diphosphomevalonate decarboxylase (Streptococcus pneumoniae serotype 2 (strain D39 / NCTC 7466), UniProt Q9FD53); assay: diphosphomevalonate decarboxylase inhibitor confirmation – biochemical, cuvette format, coupled NADH fluorescence (AID 1028); format: functional
[5] = target: T3, Neuropeptide Y receptor type 2 (Homo sapiens, UniProt P49146); assay: IC50 for human NPY-Y2 blockade – cell-based, counter-screen for NPY-Y1 antagonist project, dose response (AID 1278); format: functional
T3 sequence (P49146 whole entry): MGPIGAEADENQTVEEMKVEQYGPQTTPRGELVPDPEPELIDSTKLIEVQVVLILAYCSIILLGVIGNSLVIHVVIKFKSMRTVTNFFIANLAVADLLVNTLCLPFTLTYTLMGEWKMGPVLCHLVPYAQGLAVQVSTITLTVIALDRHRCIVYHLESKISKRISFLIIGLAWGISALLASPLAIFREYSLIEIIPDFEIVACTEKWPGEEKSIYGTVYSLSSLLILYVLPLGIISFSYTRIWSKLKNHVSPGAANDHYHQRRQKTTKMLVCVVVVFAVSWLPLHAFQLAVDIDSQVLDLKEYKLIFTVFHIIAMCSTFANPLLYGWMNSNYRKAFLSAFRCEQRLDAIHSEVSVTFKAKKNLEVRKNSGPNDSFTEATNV

[6] = non-specific 3'UTR reporter inhibition in Clone20-Shn3RL – cell-based, Renilla luciferase, cherry-picked, counter-screen for Shn3 inhibitor project, dose response (AID 624133); format: functional
[7] = reduction of Shn3 3'UTR-driven luciferase in osteoblasts – cell-based, Clone20 osteoblasts, firefly luciferase, cherry-picked, dose response (AID 624132); format: functional;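 further: firefly luciferase luminescence from reporter carrying the Shn3 3'UTR in osteoblasts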
[8] = target: T4, Neuropeptide Y receptor type 1 (Homo sapiens, UniProt P25929); assay: IC50 of human NPY-Y1 blockers – cell-based, dose response (AID 1277); format: functional
T4 sequence (P25929 whole entry): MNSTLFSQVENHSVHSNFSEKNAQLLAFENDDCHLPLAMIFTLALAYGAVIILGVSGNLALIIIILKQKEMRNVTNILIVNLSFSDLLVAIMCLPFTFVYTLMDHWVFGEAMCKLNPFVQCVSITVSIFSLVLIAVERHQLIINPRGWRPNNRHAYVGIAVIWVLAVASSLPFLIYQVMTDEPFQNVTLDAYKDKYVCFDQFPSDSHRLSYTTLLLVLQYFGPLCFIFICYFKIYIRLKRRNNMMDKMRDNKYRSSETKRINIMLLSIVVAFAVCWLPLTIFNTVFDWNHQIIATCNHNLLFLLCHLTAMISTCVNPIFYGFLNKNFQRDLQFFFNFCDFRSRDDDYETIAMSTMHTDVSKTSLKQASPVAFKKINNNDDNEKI

[9] = target: T2, Sphingosine 1-phosphate receptor 2; assay: Dose Response Cell Based Assay for Antagonists of the S1P2 Receptor. [Related pubchem assays: 856, 736 ]; format: functional
[10] = loss of viability in HepG2 cells – cell-based, CellTiter-Glo, cherry-picked, cytotoxicity control for Shn3 inhibitor project, dose response (AID 624134); format: functional
[11] = target: T2, Sphingosine 1-phosphate receptor 2; assay: Dose Response Cell Based Assay for Agonists of the S1P2 Receptor of Purchased Analogues. [Related pubchem assays: 729, 843, 854, 736 ]; format: functional
NADPH oxidase 1 = NADPH oxidase 1 (Homo sapiens, UniProt Q9Y5S8); assay: Late-stage luminescence-based cell-based dose response assay to identify inhibitors of NADPH oxidase 1 (NOX1): Synthesized analogs 3.; format: functional
Cytochrome P450 2C19 = Cytochrome P450 2C19 (Homo sapiens, UniProt P33261); assay: qHTS Assay for Inhibitors and Substrates of Cytochrome P450 2C19. [Related pubchem assays: 410 ]; format: ADME; details: read-out: Potency
Vero = assay: inhibition of WNV-induced cytopathic effect – cell-based, CPE readout (AID 1621); format: functional; details: Chlorocebus sabaeus
[12] = target: T5, Rac GTPase-activating protein 1 (Homo sapiens, UniProt Q9H0H5); assay: blockers of MgcRacGAP-driven Rac1 GTP hydrolysis – biochemical, ADP Hunter fluorescence, primary and confirmatory, confirmation (AID 624330); format: functional
T5 sequence (Q9H0H5 whole entry): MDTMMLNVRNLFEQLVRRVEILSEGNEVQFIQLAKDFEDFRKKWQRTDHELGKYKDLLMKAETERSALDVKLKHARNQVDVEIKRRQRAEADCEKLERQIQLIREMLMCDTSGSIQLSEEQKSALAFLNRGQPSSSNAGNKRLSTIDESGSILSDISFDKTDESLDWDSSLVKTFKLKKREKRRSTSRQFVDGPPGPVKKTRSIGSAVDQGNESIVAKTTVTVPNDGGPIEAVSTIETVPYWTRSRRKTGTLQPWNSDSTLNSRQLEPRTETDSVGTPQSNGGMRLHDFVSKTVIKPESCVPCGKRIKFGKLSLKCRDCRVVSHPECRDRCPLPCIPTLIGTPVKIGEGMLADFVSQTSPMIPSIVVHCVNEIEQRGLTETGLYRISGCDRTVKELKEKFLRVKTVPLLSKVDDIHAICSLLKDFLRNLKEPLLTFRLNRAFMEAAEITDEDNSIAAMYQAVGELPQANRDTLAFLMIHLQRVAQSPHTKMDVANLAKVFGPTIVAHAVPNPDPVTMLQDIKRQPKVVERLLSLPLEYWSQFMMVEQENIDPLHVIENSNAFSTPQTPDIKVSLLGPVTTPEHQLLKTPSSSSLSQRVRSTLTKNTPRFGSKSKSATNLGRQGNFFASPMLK

[13] = viability loss in HeLa cells – cytotoxicity control for MgcRacGAP inhibitor project, dose response (AID 624300); format: functional
[14] = target: Mitogen-activated protein kinase 10 (Homo sapiens, UniProt P53779); assay: Dose response biochemical screening assay for inhibitors of c-Jun N-Terminal Kinase 3 (JNK3). [Related pubchem assays: 746 ]
[15] = NIH-3T3 fibroblast cytotoxicity, dose response, cytotoxicity control, cell-based, fluorescence, Alamar Blue, secondary assay (AID 2327); format: functional;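 further: NIH-3T3 mouse fibroblasts cultured with fluconazole at 8 µg/mL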
[16] = fluconazole-exposed Candida albicans growth modulators – fluorescence, retest, confirmation (AID 2467); format: functional, cell-based
[17] = target: Bifunctional protein GlmU (Mycobacterium tuberculosis, UniProt P9WMN3); assay: Inhibitors of Mycobacterial Glucosamine-1-phosphate acetyl transferase (GlmU). Secondary screen.; design: species or system Mycobacterium tuberculosis H37Rv
Aminopeptidase N = target: T6, Aminopeptidase N (Plasmodium falciparum FcB1/Columbia, UniProt O96935); assay: malaria alanyl aminopeptidase activity blockers – biochemical, fluorogenic H-Leu-NHMec substrate, 1536-well (AID 1445); design: species or system Plasmodium falciparum 3D7, 3D7
T6 sequence (O96935 whole entry): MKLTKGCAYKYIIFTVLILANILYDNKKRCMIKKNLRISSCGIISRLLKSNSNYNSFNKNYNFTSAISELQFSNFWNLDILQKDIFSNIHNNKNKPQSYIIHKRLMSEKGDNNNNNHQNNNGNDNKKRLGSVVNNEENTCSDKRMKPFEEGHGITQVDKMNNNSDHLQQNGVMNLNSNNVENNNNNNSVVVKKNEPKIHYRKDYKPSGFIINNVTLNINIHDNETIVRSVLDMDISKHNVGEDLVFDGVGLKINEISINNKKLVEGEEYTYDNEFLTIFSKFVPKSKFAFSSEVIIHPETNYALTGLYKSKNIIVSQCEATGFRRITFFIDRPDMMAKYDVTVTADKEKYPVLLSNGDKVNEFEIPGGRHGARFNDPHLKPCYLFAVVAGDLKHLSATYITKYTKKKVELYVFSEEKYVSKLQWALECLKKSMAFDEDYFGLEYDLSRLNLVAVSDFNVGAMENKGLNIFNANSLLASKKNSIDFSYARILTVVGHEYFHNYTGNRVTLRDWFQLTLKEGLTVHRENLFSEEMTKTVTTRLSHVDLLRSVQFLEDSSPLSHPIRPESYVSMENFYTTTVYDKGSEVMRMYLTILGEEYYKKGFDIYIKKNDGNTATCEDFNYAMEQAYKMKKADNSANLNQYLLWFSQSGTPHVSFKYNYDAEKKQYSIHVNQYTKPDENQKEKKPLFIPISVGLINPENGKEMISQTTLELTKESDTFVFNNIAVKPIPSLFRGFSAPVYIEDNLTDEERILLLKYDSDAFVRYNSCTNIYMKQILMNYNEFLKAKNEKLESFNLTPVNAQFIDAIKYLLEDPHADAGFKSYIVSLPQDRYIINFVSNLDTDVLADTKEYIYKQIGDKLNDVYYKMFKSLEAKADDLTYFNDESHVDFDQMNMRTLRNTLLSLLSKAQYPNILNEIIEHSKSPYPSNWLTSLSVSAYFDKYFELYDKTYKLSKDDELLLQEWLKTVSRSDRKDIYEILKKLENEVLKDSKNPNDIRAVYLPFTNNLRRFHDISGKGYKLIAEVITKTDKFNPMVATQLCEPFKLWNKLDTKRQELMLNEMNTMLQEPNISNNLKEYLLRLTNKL

Genome polyprotein = Genome polyprotein (dengue virus type 2, UniProt P29990); assay: flavivirus cap methylation enzyme inhibition – biochemical, confirmation dose response, primary screen (AID 588689); format: functional
[18] = target: T7, Carboxy-terminal domain RNA polymerase II polypeptide A small phosphatase 1 (Homo sapiens, UniProt Q9GZU7); assay: CTDSP1 inhibitors, concentration-response, biochemical, absorbance readout, ultra-high-throughput screen actives (AID 540297); format: functional
T7 sequence (Q9GZU7 whole entry): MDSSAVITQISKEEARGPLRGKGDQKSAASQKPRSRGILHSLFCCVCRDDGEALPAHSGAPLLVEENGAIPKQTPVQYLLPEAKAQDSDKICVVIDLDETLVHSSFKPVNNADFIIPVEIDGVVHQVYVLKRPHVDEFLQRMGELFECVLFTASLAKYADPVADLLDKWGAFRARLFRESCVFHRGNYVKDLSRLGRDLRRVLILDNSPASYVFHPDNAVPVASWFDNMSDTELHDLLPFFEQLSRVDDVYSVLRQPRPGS

14-3-3 protein gamma = 14-3-3 protein gamma (Homo sapiens, UniProt P61981); assay: modulators of 14-3-3 gamma client binding – dose response (AID 711); format: functional
14-3-3 protein gamma, sequence (P61981 whole entry): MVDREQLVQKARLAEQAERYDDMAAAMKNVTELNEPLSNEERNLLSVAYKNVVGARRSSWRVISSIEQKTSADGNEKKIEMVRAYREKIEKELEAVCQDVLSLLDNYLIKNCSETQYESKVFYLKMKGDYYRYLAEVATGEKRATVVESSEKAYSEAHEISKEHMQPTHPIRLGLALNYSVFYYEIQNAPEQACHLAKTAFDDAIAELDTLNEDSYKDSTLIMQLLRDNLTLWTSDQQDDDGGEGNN

T2 sequence (O95136 whole entry): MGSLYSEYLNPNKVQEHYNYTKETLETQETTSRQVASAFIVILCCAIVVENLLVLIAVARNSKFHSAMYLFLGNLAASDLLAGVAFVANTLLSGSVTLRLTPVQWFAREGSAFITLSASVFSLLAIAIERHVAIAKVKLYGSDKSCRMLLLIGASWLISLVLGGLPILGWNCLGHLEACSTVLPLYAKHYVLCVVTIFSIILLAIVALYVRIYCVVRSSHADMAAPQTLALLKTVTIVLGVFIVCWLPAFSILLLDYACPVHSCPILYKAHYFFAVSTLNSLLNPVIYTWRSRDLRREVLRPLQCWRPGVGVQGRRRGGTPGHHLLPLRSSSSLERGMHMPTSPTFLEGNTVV
NADPH oxidase 1, sequence (Q9Y5S8 whole entry): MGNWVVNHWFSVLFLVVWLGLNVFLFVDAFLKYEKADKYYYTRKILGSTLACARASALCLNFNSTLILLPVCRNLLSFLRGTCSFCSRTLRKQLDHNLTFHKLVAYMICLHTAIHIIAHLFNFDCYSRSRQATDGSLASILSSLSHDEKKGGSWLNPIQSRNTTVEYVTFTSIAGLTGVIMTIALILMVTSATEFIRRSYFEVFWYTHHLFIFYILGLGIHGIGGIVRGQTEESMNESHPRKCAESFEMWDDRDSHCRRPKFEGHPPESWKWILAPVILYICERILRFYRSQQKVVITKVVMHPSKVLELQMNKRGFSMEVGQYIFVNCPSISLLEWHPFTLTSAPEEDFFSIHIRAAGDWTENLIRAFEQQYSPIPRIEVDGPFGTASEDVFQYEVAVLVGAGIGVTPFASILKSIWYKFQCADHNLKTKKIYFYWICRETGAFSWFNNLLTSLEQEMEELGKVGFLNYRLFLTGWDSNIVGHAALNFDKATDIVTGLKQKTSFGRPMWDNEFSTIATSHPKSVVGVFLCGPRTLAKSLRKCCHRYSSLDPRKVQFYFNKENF
Mitogen-activated protein kinase 10, sequence (P53779 whole entry): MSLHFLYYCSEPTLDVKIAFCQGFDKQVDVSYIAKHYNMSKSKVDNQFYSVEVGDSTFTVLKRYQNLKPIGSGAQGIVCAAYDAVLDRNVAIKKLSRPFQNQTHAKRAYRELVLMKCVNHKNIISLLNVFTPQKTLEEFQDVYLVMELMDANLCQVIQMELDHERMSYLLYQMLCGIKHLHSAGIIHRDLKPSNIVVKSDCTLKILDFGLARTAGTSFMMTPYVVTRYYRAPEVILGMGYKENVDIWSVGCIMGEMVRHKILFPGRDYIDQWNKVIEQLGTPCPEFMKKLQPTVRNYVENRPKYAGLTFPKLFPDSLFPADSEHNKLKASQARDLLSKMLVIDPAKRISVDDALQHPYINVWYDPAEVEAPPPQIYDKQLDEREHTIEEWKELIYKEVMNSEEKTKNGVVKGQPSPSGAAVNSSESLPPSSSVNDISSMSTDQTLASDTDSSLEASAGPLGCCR
Genome polyprotein, sequence (P29990 2492-3391 limits assumed): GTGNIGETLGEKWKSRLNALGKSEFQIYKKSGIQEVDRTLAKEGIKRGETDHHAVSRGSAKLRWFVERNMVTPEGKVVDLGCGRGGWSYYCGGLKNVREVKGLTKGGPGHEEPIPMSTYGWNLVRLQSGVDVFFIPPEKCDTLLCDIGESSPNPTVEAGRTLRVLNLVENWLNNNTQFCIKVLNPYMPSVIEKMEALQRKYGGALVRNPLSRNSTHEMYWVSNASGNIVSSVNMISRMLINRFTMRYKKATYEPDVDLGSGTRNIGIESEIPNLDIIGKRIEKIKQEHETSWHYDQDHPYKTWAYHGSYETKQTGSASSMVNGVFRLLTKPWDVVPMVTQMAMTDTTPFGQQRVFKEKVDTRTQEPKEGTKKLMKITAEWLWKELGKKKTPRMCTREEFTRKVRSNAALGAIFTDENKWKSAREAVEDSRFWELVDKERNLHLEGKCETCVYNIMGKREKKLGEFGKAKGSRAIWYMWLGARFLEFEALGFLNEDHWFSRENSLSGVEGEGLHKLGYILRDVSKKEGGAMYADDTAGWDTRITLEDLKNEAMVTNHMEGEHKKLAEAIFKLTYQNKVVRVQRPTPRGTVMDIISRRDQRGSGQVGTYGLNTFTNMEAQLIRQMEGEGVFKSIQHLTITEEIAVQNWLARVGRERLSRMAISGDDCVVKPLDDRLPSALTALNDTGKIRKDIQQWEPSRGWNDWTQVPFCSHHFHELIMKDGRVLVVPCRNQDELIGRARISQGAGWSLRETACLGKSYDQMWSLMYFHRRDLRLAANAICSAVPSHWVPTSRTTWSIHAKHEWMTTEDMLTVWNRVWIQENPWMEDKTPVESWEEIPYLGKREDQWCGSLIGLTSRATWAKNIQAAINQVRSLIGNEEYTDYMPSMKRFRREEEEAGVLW
Bifunctional protein GlmU, sequence (P9WMN3 whole entry): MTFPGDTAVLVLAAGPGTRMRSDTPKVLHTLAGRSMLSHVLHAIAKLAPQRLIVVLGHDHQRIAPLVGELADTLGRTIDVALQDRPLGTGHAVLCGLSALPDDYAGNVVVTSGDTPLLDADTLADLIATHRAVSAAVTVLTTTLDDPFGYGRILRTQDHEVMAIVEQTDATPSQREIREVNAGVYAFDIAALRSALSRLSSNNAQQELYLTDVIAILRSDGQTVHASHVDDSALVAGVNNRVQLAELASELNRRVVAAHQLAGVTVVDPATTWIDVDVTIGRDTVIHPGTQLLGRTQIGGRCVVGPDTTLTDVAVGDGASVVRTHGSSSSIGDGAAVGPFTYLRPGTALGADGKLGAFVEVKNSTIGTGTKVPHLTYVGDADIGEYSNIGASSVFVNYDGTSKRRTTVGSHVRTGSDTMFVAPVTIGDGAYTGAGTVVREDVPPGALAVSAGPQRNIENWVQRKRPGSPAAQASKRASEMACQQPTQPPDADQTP
Cytochrome P450 2C19, sequence (P33261 whole entry): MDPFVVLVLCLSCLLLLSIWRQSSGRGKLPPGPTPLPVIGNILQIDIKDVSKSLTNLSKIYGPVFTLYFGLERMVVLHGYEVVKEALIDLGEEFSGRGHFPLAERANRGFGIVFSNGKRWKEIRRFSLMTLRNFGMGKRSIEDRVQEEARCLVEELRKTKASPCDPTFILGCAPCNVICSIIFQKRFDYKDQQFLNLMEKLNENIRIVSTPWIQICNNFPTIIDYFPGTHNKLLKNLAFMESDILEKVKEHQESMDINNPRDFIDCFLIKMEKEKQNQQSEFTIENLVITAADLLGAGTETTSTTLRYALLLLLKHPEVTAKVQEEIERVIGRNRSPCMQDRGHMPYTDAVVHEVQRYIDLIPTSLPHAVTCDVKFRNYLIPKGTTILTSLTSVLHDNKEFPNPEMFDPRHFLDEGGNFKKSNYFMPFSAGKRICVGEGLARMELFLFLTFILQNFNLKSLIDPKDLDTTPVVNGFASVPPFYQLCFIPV
Diphosphomevalonate decarboxylase, sequence (Q9FD53 whole entry): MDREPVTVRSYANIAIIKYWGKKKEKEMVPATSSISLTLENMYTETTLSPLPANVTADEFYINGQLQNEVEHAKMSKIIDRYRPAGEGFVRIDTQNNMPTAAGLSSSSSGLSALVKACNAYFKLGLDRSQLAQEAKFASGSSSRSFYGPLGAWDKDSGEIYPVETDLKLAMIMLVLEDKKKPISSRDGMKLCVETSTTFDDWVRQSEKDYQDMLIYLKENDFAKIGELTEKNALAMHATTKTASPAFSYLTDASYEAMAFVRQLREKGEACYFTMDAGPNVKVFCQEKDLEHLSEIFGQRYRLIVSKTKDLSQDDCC
Lytic switch protein BZLF1, sequence (P03206 whole entry): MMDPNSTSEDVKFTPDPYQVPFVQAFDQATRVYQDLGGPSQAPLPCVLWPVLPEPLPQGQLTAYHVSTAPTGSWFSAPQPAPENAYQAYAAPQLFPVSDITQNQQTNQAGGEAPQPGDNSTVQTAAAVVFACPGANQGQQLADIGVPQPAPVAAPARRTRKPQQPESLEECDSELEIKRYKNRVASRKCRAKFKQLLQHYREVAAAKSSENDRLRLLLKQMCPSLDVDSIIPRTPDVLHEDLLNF
Epstein-Barr nuclear antigen 1, sequence (P03211 whole entry): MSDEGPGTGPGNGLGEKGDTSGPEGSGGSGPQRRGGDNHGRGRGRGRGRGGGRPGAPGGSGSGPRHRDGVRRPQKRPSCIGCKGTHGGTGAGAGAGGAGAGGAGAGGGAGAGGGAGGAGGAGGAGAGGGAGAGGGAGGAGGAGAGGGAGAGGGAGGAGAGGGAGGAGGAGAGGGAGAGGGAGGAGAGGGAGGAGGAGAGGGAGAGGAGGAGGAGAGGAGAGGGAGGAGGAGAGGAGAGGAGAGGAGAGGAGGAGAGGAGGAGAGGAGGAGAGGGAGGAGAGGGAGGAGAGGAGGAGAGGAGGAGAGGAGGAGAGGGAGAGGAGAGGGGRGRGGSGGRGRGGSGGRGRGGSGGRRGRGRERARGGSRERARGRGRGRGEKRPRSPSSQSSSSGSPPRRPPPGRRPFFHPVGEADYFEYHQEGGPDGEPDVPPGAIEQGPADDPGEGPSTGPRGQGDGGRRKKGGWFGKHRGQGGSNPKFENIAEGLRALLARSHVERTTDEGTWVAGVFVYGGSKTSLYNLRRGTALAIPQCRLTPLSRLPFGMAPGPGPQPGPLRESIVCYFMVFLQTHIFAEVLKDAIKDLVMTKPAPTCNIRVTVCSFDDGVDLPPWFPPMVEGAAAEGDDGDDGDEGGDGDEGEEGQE

In the case of COc1ccc(/C=N/NC(=O)c2sc3nc(C)cc(C)c3c2N)cc1, the IC50 (Coagulation factor XII) is reported as > 50 µM (inactive) and the IC50 (Prothrombin) is reported as > 50 µM (not active).

For c1ccc(OCCSc2nnnn2-c2ccccc2)cc1, the EC50 [1] was > 50 µM (not active).

With COCCCNC(=O)c1c(N)n(-c2ccc(S(N)(=O)=O)cc2)c2nc3ccccc3nc12 the IC50 [2] was > 111 µM (not active) and the IC50 [3] was > 5.47 µM (active).

In the case of O=C(NCc1ccccc1)c1ccccc1-n1sc2ccccc2c1=O, the IC50 [4] is reported as 12.4 µM (active).

In the case of CCN(C(=O)c1ccc(C(C)(C)C)cc1)c1nnc(Cn2nnc3ccccc32)s1, the IC50 [5] is reported as 7.74 µM (active), the AC50 [6] is reported as 2 µM (active) and the AC50 [7] is reported as 1.35 µM (active). The IC50 [8] was 3.21 µM (active), the IC50 [9] was 83.8 µM (not active) and the AC50 [10] was 1.55 µM (active).

In the case of Cc1cc(C(=O)CN(C)Cc2ccco2)c(C)n1Cc1ccccc1, the EC50 [11] is reported as > 30 µM (not active).

In the case of CN1c2ccc(Br)cc2Sc2cc(C(=O)c3ccc(N=[N+]=[N-])cc3)ccc21, the IC50 (NADPH oxidase 1) is reported as 13.7 µM (active).

In the case of CNc1ccccc1C(=O)OCC(=O)c1ccccc1, the AC50 (Cytochrome P450 2C19) is reported as 2 µM (inconclusive).

For CCOC(=O)c1c(NC(=O)CN(C)C2CCN(C)CC2)sc(C(=O)Nc2ccccc2)c1C, the IC50 (Vero) was 24.3 µM (active), the IC50 [12] was 76.9 µM (active) and the CC50 [13] was 100 µM (active).

In the case of CS(=O)(=O)N1CCN(c2ccccc2NC(=O)Cc2ccccc2)CC1, the IC50 [14] is reported as 68.8 µM (not active).

For COC(=O)c1ccc(N2NC(=O)/C(=C/c3ccc(-c4ccc(Cl)c(C(=O)O)c4)o3)C2=O)cc1, the EC50 [15] was > 150 µM (inconclusive), the EC50 [16] was > 38 µM (not active) and the IC50 [17] was 75.8 µM (active). The IC50 (Aminopeptidase N) was 28.6 µM (active), the IC50 (Genome polyprotein) was 11.9 µM (active) and the IC50 [18] was 2.15 µM (active).

For COc1ccc(OC)c(NC(=O)CCN2CCCC(C)C2)c1 (stereo unspecified), the IC50 (14-3-3 protein gamma) was > 50 µM (not active).
